Laboratory results from patent publication US20240043928A1, “BIOMARKERS FOR MYELODYSPLASTIC SYNDROME (MDS) AND METHODS OF USING THE SAME” (Eisai R&D Management Co., Ltd., priority 2020, published 2024).

System: TMEM14C AJ/CJ ratio and other splicing markers
Experiment: Phase I study NCT02841540: pharmacodynamics, splicing markers in peripheral blood (Nanostring nCounter panel)
Type: in vivo, human
Procedure: Plasma samples for PK analyses were collected during Cycle 1 on Day 1 and Day 4 (pre-dose and 0.5, 1, 2, 4, 6, 8, 10, and 24 hours post-dose), and pre-dose and 4 hours post-dose on Cycle 1 on Day 15. PK analyses were conducted using Phoenix® VVinNonlin. For pharmacodynamic and biomarker analyses, peripheral blood samples were collected into PAXgene® Blood RNA Tubes (BD Biosciences, San Jose, California) at Cycle 1 Day 1 (pre-dose and 1, 2, 4, 10 and 24 hours post-dose) for all patients. RNA was extracted using Maxwell® simplyRNA Blood Kit (Promega, Madison, Wisconsin). Target engagement (i.e., splicing modulation) was measured by assessing relative expression of representative pre- and mature-mRNA or aberrant and canonical transcripts at post-dose time points comparing to pre-dose, using a customized Nanostring nCounter gene expression panel (NanoString Technologies, Seattle, Washington). For splicing mutation analysis, peripheral blood was collected into PAXgene® Blood DNA Tubes (BD Biosciences, San Jose, California). Baseline splicing mutations were identified using the Focus:Myeloid™ Next Generation Sequencing (NGS) panel determined centrally by Cancer Genetics Inc. (Rutherford, NJ). Biomarker analyses of pretreatment samples were conducted using one-way ANOVA and MedCalc® software. Receiver-Operating-Characteristics (ROC) curves were performed according to the methodology described by Hanley and McNeil (Radiology. 1982;143(1):29-36; see also Zweig and Campbell, Clin Chem. 1993;39(4):561-577).

[1] = patients who experienced RBC TI

With `C/C(=C\C=C\[C@@H](C)c1ccccn1)[C@H]1OC(=O)C[C@H](O)CC[C@@](C)(O)[C@@H](OC(=O)N2CCN(C)CC2)/C=C/[C@@H]1C` [Compound 1, (2S,3S,4E,6S,7R,10R)-7,10-dihydroxy-3,7-dimethyl-12-oxo-2-[(2E,4E,6R)-6-(pyridine-2-yl)hepta-2,4-dien-2-yl]oxacyclododec-4-en-6-yl-4-methylpiperazine-1-carboxylate] the “modulation of splicing markers post-dosing” value (PBMC samples, NanoString probes, 61 splicing markers) was “general modulation of splicing markers post-dosing was observed”, the “modulation of relative expression of splicing markers” value (heat map, FIG. 5) was “dose-dependent modulation” and the “change of the TMEM14C AJ/CJ ratio with dosing” value [1] was “Downregulation”. The “time of nadir of the TMEM14C AJ/CJ ratio” value [1] was 2 to 10 h.
